# Measured values from PMC8507260, “A2E-induced inflammation and angiogenesis in RPE cells in vitro are modulated by PPAR-α, -β/δ, -γ, and RXR antagonists and by norbixin” (Aging (Albany NY), 2021).
# “Also recorded” adds a separate entry of the source. Where two headings read alike, the source gives them in different places.
# Legend:
# PPAR = test: Endogenous PPAR transactivation, luciferase reporter in primary porcine RPE cells; assay type: cell-based
# Experimental: (§1) Pig eyes were obtained from a local slaughterhouse and transported to the laboratory in ice-cold Ringer solution. After removal of the anterior segment of the eye, the vitreous and neural retina was separated from the RPE and removed. The eyecup was washed twice with phosphate buffer saline (PBS), filled with trypsin (0.25% in PBS) and incubated at 37°C for 1.5 h. RPE cells were harvested by gently pipetting, centrifuged to remove trypsin and re-suspended in Dulbecco’s Modified Eagle Medium (DMEM) supplemented with 20% (v/v) foetal-calf serum (DMEM20%FCS) and 0.1% gentamycin. Cells were seeded into 60 mm diameter Petri dishes, cultured in an atmosphere of 5% CO2/95% air at 37°C, and supplied with fresh medium after 24 hours and 4 days in vitro. For experiments aimed at measuring mRNA or protein expression in RPE, cells were trypsinized after one week in culture and transferred to 24-well or 6-well plates at a density of 1.5 × 10^5 cells/cm^2 in DMEM2%FCS. Norbixin or agonists were added to the medium 24 h after seeding, and antagonists were added to the medium 24 h later. A2E treatment was performed during 19 h before cellular sample preparation. All the drugs used in these experiments were prepared as stock solutions in DMSO.
# (§2) After one week in culture, cells were trypsinized and transferred to a 96-well plate at a density of 6 × 10^4 cells/cm^2 in DMEM2%FCS. The next day, cells were transfected using the Cignal Reporter Assay Kits for PPAR, RXR, AP-1 and NF-κB, according to the manufacturer’s specifications. To measure the specific activation of PPAR isoforms, cells were also co-transfected with PPAR-α, PPAR-β/δ or PPAR-γ expression vectors. Transfection was performed with Lipofectamine and Plus Reagent in serum-free medium. 3 h after the transfection, the medium was replaced and treatments with the molecules to assay were performed. Luciferase activity was measured the next day using the Dual-Luciferase Reporter Assay System. The measurements were performed with a luminometer (Infinite M1000 from Tecan, Mannedorf, Switzerland). Firefly: Renilla activity ratios were calculated for each condition and ratios from transcription factor-responsive reporter transfections were divided by ratios from negative control transfections to obtain relative luciferase unit, as described by the manufacturer. At least 3 independent transfections were performed in triplicate for each condition.
# MMP9 = MMP9 mRNA expression by quantitative RT-PCR in porcine RPE cells; assay type: cell-based
# Experimental: as §1, with “All the drugs used in these experiments were prepared as stock solutions in DMSO.” left out
# (§3) Total RNA was extracted using the NucleoSpin® RNA kit according to manufacturer’s instructions. […] The relative mRNA expression was calculated using the comparative threshold method (Ct-method) with GAPDH for normalization. […]
# IL-18 = IL-18 mRNA expression by quantitative RT-PCR in porcine RPE cells; assay type: cell-based
# Experimental: as §1, with “All the drugs used in these experiments were prepared as stock solutions in DMSO.” left out
# as §3
# VEGF = VEGF mRNA expression by quantitative RT-PCR in porcine RPE cells; assay type: cell-based
# Experimental: as §1
# Total RNA was extracted using the NucleoSpin® RNA kit according to manufacturer’s instructions. RT of 500 ng of RNA was performed using the SuperScript III Reverse Transcriptase following the manufacturer’s instructions. Five ng of cDNA were amplified using the SYBR GREEN real-time PCR method. PCR primers for target genes and housekeeping gene GAPDH were designed using Primer3Plus Bioinformatic software (Table 2). The RT-PCR using the StepOne Plus (Life Technologies, Carlsbad, CA, USA) consisted of incubation at 50°C for 5 min followed by 40 cycles of 95°C for 15 s and of 60°C for 1 min. The reaction was completed by a melt curve stage at 95°C for 15 s, 60°C for 1 min, 95°C for 15 s and a final step at 60°C for 15 s. The relative mRNA expression was calculated using the comparative threshold method (Ct-method) with GAPDH for normalization. […]
# PPAR-α = test: Transactivation of over-expressed PPAR-α, luciferase reporter in porcine RPE cells; assay type: cell-based, pig; conditions: for transactivation of over-expressed PPAR-α by the compound alone: vs DMSO control, A2E 20 μM, NBX increasing concentrations
# Experimental: First, we evaluated the binding profile of A2E to all three isoforms of PPAR. […] Then the effects of A2E on the endogenous PPAR transactivation in porcine RPE cells were investigated by means of a luciferase assay. […] The level of transactivation of PPAR-α, -β/δ, or -γ isoforms by A2E was determined by co-transfection of porcine RPE cells with a plasmid expressing each of the full-length PPAR isoforms and a plasmid expressing luciferase under the control of the PPAR response element. […]. All usual chemicals, primers, and HX531 were from Sigma (St. Louis, MO, USA). Reagents for cell culture, transfection and quantitative RT-PCR were from Thermo Fisher Scientific (Waltham, MA, USA). RNA extraction NucleoSpin® RNA kit was from Macherey Nagel (Düren, Germany). ECL prime and PVDF membrane were from Amersham GE Healthcare (Buckinghamshire, UK). Primary antibodies against the following proteins were used: GAPDH (Santa Cruz Biotechnology, Inc, Dallas, TX, USA); pAKT, AKT, pERK and ERK (Cell Signaling, Danvers, MA, USA). Secondary antibodies were from Jackson ImmunoResearch (Cambridgeshire, UK). […] Cignal Pathway Reporter Assay Kits were from QIAGEN (Frederick, MD, USA). The Dual-Luciferase Reporter Assay System was purchased from Promega (Madison, WI, USA). pcDNA 3.1 (+)-PPARα and pcDNA 3.1 (+)-PPARβ/δ (pig sequence) were purchased from Genscript (Piscataway, NJ, USA). pCMV6-XL4-PPARγ (human sequence) was purchased from Origene (Rockville, MD, USA).
# as §2
# CCL2 = CCL2 mRNA expression by quantitative RT-PCR in porcine RPE cells; assay type: cell-based
# Experimental: as §1, with “All the drugs used in these experiments were prepared as stock solutions in DMSO.” left out
# as §3
# PPAR-γ = target: T1, PPAR-γ (Homo sapiens, UniProt P37231); set-up: Eurofins Cerep (contract laboratory that ran the assay); method as in PMID 19891958; conditions: cited from earlier work
# T1 sequence (P37231 1-505): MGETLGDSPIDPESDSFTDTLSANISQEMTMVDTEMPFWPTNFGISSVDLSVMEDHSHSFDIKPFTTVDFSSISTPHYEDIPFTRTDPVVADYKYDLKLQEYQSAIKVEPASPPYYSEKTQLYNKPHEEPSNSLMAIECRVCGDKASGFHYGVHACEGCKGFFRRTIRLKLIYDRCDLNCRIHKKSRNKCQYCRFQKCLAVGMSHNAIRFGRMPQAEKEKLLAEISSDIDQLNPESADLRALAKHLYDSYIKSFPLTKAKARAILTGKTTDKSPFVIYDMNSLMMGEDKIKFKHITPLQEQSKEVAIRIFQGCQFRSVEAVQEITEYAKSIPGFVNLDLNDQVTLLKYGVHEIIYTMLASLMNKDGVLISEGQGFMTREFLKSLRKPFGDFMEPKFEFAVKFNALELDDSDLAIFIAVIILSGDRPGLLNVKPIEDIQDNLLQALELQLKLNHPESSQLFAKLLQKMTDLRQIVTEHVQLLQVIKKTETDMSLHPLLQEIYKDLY
# RPE cells = test: Cell viability of RPE cells in culture without blue light; assay type: cell-based, porcine; conditions: cell culture conditions for cytokine dosage, absence of blue light exposure
SMILES,"inhibition of endogenous PPAR transactivation induced by A2E (PPAR; A2E 20 μM, NBX 20 μM, HX531 5 μM (HX531 effect not significant)) [%]","effect of the compound alone on endogenous PPAR transactivation (PPAR; NBX 20 μM, no A2E)","effect on MMP9 mRNA expression in the absence or presence of A2E (MMP9; NBX 20 μM, A2E 30 μM)","effect on IL-18 expression induced by A2E (IL-18; NBX 20 μM + A2E 30 μM, PPAR antagonists)","effect on VEGF mRNA expression induced by A2E (VEGF; NBX 20 μM with A2E 30 μM, MK886 1 μM, GSK3787 1 μM, T007907 10 μM, alone or as mixture, with A2E 20 μM)",effect on over-expressed PPAR-α transactivation induced by A2E (PPAR-α; A2E 20 μM + NBX 20 μM),"inhibition of PPAR-α transactivation induced by GW9578 (PPAR-α; GW9578 at 10 nM, NBX 20 μM)",transactivation of over-expressed PPAR-α by the compound alone (PPAR-α),effect on CCL2 mRNA expression induced by A2E (CCL2; NBX 20 μM + A2E 30 μM),PPAR-γ transactivation in 3T3-L1 adipocytes (PPAR-γ; norbixin at 20 μM),PPAR-γ transactivation in 3T3-L1 adipocytes (PPAR-γ; norbixin at 70 μM),cell viability (RPE cells),"minimal required concentration to transactivate all PPARs (endogenous) (PPAR; dose-response, porcine RPE cells) [µM]",effect of the compound alone on MMP9 mRNA expression (MMP9; A2E 30 μM vs DMSO control),effect of the compound alone on IL-18 mRNA expression (IL-18; A2E 30 μM vs DMSO control),enhancement of VEGF mRNA expression by the compound alone (VEGF; A2E 30 μM vs DMSO control),effect of the compound alone on CCL2 mRNA expression (CCL2; A2E 30 μM vs DMSO control)
"CC(/C=C/C=C(C)/C=C/C(=O)O)=C\C=C\C=C(C)\C=C\C=C(C)\C=C\C(=O)O (stereo in doubt) [norbixin, 9’-cis-norbixin]",52,did not inhibit,"slightly, but significantly, increased",not inhibited,significantly inhibited,fully abolished,did not inhibit significantly,did not demonstrate any transactivation activity,further increased,does not induce; also recorded: did not induce,induces a limited transactivation,,,,,,
"CC(C=CC1=C(C)CCCC1(C)C)=CC=CC(C)=Cc1cc(C=CC=C(C)C=CC2=C(C)CCCC2(C)C)cc[n+]1CCO [A2E, N-retinylidene-N-retinylethanolamine]",,,,,,,,induced the transactivation,,,,not diminished,20,reduced the expression,induced by A2E,approximately 9 fold,up-regulated
